ChEMBL document CHEMBL1201862, “PubChem BioAssay data set” (2004)
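Five compound concentrations were applied to cells in 96-well plates for 48 hours; endpoints were derived by simple linear interpolation of the resulting dose-response curve. GI50 = concentration required for 50% inhibition of growth.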 Active and inactive are the calls of the source. Cut-off read from the data, not from the text of the source: active = GI50 up to about 1.1 µM and inactive = higher.

Experiments:
Experiment in all cases: NCI tumour cell line growth inhibition, 48 h
[1] = system: 786-0
[2] = system: COLO 205
[3] = system: HCC 2998
[4] = system: HOP-62
[5] = system: HOP-92
[6] = system: Hs-578T
[7] = system: K562
[8] = system: KM12
[9] = system: LOX IMVI
[10] = system: MDA-N
[11] = system: NCI-H23
[12] = system: OVCAR-3
[13] = system: RPMI-8226
[14] = system: RXF 393
[15] = system: SF-295
[16] = system: SF-539
[17] = system: SK-MEL-2
[18] = system: SN12C
[19] = system: TK-10

SMILES	GI50 [1]	GI50 [2]	GI50 [3]	GI50 [4]	GI50 [5]	GI50 [6]	GI50 [7]	GI50 [8]	GI50 [9]	GI50 [10]	GI50 [11]	GI50 [12]	GI50 [13]	GI50 [14]	GI50 [15]	GI50 [16]	GI50 [17]	GI50 [18]	GI50 [19]
O=c1[nH]nc(-c2ccccc2)n1-n1cnnc1	> 100 µM (inactive)	> 100 µM (inactive)	> 100 µM (inactive)	> 100 µM (inactive)	> 100 µM (inactive)	> 100 µM (inactive)	> 100 µM (inactive)	> 100 µM (inactive)	> 100 µM (inactive)	> 100 µM (inactive)	> 100 µM (inactive)	> 100 µM (inactive)	> 100 µM (inactive)	> 100 µM (inactive)	> 100 µM (inactive)	> 100 µM (inactive)	> 100 µM (inactive)	> 100 µM (inactive)	> 100 µM (inactive)
N=C(N)NS(=O)(=O)c1ccc(N/N=C2/CCOC2=O)cc1	> 100 µM (inactive)	> 100 µM (inactive)	> 100 µM (inactive)	26.6 µM (inactive)	63.2 µM (inactive)	57.8 µM (inactive)	45.3 µM (inactive)	> 100 µM (inactive)	> 100 µM (inactive)	> 100 µM (inactive)	> 100 µM (inactive)	> 100 µM (inactive)	> 100 µM (inactive)	> 100 µM (inactive)	49.7 µM (inactive)	> 100 µM (inactive)	> 100 µM (inactive)	65.5 µM (inactive)	> 100 µM (inactive)
c1cc(C2=NCCO2)c2ccsc2c1	> 100 µM (inactive)	> 100 µM (inactive)	> 100 µM (inactive)	> 100 µM (inactive)	41.2 µM (inactive)	22.7 µM (inactive)	> 100 µM (inactive)	> 100 µM (inactive)	> 100 µM (inactive)	> 100 µM (inactive)	> 100 µM (inactive)	> 100 µM (inactive)	> 100 µM (inactive)	> 100 µM (inactive)	> 100 µM (inactive)	> 100 µM (inactive)	> 100 µM (inactive)	> 100 µM (inactive)	> 100 µM (inactive)
COC(=N)C1(C#N)NC(c2ccsc2)C(C#N)(C#N)NC1c1ccsc1 (centres undefined)	> 100 µM (inactive)	> 100 µM (inactive)	> 100 µM (inactive)	> 100 µM (inactive)	60.7 µM (inactive)	> 100 µM (inactive)	> 100 µM (inactive)	> 100 µM (inactive)	> 100 µM (inactive)	> 100 µM (inactive)	> 100 µM (inactive)	> 100 µM (inactive)	> 100 µM (inactive)	> 100 µM (inactive)	> 100 µM (inactive)	> 100 µM (inactive)	> 100 µM (inactive)	> 100 µM (inactive)	> 100 µM (inactive)
C=C1C(O)C23CCC4C(C(=O)O)(C(=O)O)CC(OC5OC(CO)C(O)C(OC(=O)CCc6ccccc6)C5NC(=O)CC(C)C)CC4(C)C2CCC1(O)C3 (centres undefined)	> 100 µM (inactive)	> 100 µM (inactive)	> 100 µM (inactive)	> 100 µM (inactive)	> 100 µM (inactive)	> 100 µM (inactive)	> 100 µM (inactive)	> 100 µM (inactive)	> 100 µM (inactive)	> 100 µM (inactive)	> 100 µM (inactive)	> 100 µM (inactive)	> 100 µM (inactive)	> 100 µM (inactive)	> 100 µM (inactive)	> 100 µM (inactive)	> 100 µM (inactive)	> 100 µM (inactive)	> 100 µM (inactive)
COC1(C)CCC(OS(C)(=O)=O)CO1 (centres undefined)	> 100 µM (inactive)	> 100 µM (inactive)	> 100 µM (inactive)	> 100 µM (inactive)	> 100 µM (inactive)	> 100 µM (inactive)	> 100 µM (inactive)	> 100 µM (inactive)	> 100 µM (inactive)	> 100 µM (inactive)	> 100 µM (inactive)	> 100 µM (inactive)	> 100 µM (inactive)	> 100 µM (inactive)	> 100 µM (inactive)	> 100 µM (inactive)	> 100 µM (inactive)	> 100 µM (inactive)	> 100 µM (inactive)
O=C1CC2CCC(C1)[S+]2[O-] (centres undefined)	> 100 µM (inactive)	> 100 µM (inactive)	> 100 µM (inactive)	> 100 µM (inactive)	> 100 µM (inactive)	> 100 µM (inactive)	> 100 µM (inactive)	> 100 µM (inactive)	> 100 µM (inactive)	> 100 µM (inactive)	> 100 µM (inactive)	> 100 µM (inactive)	> 100 µM (inactive)	> 100 µM (inactive)	61.4 µM (inactive)	> 100 µM (inactive)	> 100 µM (inactive)	> 100 µM (inactive)	> 100 µM (inactive)
Cc1cc(O)c(C(C)C)cc1/N=C/c1ccccc1O	5.73 µM (inactive)	25.5 µM (inactive)	7.29 µM (inactive)	11.7 µM (inactive)	0.621 µM (active)	8.73 µM (inactive)	1.26 µM (inactive)	3.76 µM (inactive)	3.13 µM (inactive)	3.72 µM (inactive)	15.2 µM (inactive)	2.48 µM (inactive)	0.278 µM (active)	1.34 µM (inactive)	13.1 µM (inactive)	30.8 µM (inactive)	11 µM (inactive)	4.54 µM (inactive)	13.1 µM (inactive)
COc1cc(-c2nc3ccccn3c2/N=C/c2cc(Br)cc(Br)c2O)ccc1O	18 µM (inactive)	26.9 µM (inactive)	79.6 µM (inactive)	21.6 µM (inactive)	23.4 µM (inactive)	26.1 µM (inactive)	28.6 µM (inactive)	24.2 µM (inactive)	24 µM (inactive)	22.4 µM (inactive)	24.3 µM (inactive)	15.6 µM (inactive)	24.7 µM (inactive)	32.9 µM (inactive)	20.7 µM (inactive)	27.4 µM (inactive)	22.3 µM (inactive)	19.5 µM (inactive)	23.9 µM (inactive)
O=C1c2ccccc2CC12Cc1ccc3c(c1C2)CCC3 (centres undefined)	20.6 µM (inactive)	19 µM (inactive)	24.3 µM (inactive)	23.3 µM (inactive)	14 µM (inactive)	21 µM (inactive)	22.3 µM (inactive)	24.4 µM (inactive)	12.4 µM (inactive)	19.8 µM (inactive)	28.8 µM (inactive)	17.4 µM (inactive)	19 µM (inactive)	16.4 µM (inactive)	25.4 µM (inactive)	27.5 µM (inactive)	15.9 µM (inactive)	26.7 µM (inactive)	2.36 µM (inactive)
COc1cc2c(cc1OC)[C@H]1C(=O)c3cc4c(cc3[C@H]1N(C)C2=O)OCO4	4.41 µM (inactive)	6.14 µM (inactive)	37.6 µM (inactive)	5.07 µM (inactive)	22.2 µM (inactive)	> 94.6 µM (inactive)	0.869 µM (active)	36.6 µM (inactive)	1.5 µM (inactive)	12.1 µM (inactive)	5.2 µM (inactive)	19.2 µM (inactive)	4.34 µM (inactive)	21.8 µM (inactive)	2.35 µM (inactive)	3.94 µM (inactive)	> 100 µM (inactive)	2.83 µM (inactive)	> 100 µM (inactive)
